Here are results for 16 compounds from patent US10287269B2, “Pyrazolyl pyrimidinone compounds as PDE2 inhibitors” (Merck Sharp & Dohme Corp., priority 2015, dated 2019).

As a reminder, the Ki is a dissociation constant, usually derived from enzyme kinetics or from competition with a known ligand.

The target in one data set is T1, human PDE2A1 (Homo sapiens, UniProt O00408).
T1 construct: GST; purchased BPS Bioscience (San Diego, Calif.) 60020; host or cells: insect cells
T1 sequence (O00408 1-920 isoform O00408-2): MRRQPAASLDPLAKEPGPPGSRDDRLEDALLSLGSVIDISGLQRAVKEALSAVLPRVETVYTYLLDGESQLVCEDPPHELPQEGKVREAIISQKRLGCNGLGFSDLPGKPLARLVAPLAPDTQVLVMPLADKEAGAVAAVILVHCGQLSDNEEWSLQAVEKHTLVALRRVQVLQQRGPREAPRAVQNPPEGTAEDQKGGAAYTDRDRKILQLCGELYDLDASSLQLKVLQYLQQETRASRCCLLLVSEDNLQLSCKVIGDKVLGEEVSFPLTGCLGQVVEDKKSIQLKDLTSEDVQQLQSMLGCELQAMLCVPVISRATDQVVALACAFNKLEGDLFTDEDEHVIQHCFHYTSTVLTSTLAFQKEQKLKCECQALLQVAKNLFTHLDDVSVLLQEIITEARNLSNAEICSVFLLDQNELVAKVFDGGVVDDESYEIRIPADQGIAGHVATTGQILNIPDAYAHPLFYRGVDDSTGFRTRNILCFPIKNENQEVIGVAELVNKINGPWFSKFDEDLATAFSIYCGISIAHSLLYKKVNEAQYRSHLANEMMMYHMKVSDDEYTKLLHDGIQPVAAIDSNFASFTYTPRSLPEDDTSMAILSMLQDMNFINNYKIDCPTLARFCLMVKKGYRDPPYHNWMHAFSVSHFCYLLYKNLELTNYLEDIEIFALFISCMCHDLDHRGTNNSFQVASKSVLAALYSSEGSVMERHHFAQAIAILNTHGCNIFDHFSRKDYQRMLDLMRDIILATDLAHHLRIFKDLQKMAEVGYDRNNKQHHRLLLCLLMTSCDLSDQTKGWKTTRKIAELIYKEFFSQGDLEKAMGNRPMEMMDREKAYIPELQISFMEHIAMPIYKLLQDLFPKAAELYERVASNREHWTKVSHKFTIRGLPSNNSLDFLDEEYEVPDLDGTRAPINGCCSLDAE
Nature of the data set: PDE2 IMAP FP inhibition assay, human enzyme (PDE selectivity panel format). It is filed as biochemical. The note with it: Lab A; read-out: Human PDE2 Ki (nM) Lab A. How it is done: Selectivity for PDE2, as compared to other PDE families, was assessed using the IMAP® technology. Human PDE10A2 enzyme was prepared from cytosolic fractions of transiently transfected HEK cells. All other PDE's were GST Tag human enzyme expressed in insect cells and were obtained from BPS Bioscience (San Diego, Calif.): PDE1A (Cat#60010), human PDE2A1 (Cat#60020), PDE3A (Cat#60030), PDE4A1A (Cat#60040), PDE5A1 (Cat#60050), PDE6C (Cat#60060), PDE7A (Cat#60070), PDE8A1 (Cat#60080), PDE9A2 (Cat#60090), PDE11A4 (Cat#60110).
Assays for PDE 1 through 11 were performed in parallel at room temperature in 384-well microtiter plates with an incubation volume of 20.2 μL. Solutions of test compounds were prepared in DMSO and serially diluted with DMSO to yield 30 μL of each of ten solutions differing by 3-fold in concentration, at 32 serial dilutions per plate. […] A Labcyte POD 810 (Labcyte, Sunnyvale, Calif.) was used to dispense 200 nL from each well of the titration plate to make eleven copies of the assay plate for each titration, one copy for each PDE enzyme. A solution of each enzyme (dilution from aliquots, sufficient to produce 20% substrate conversion) and a separate solution of FAM-labeled cAMP or FAM-labeled cGMP from Molecular Devices (Sunnyvale, Calif., product # R7506 or cGMP#R7508), at a final concentration of 50 nM were made in the assay buffer (10 mM Tris HCl, pH 7.2, 10 mM MgCl2, 0.05% NaN3 0.01% Tween-20, and 1 mM DTT). Note that the substrate for PDE2 is 50 nM FAM cAMP containing 1000 nM of cGMP. The enzyme and the substrate were then added to the assay plates in two consecutive additions of 10 μL and then shaken to mix. The reaction was allowed to proceed at room temperature for 60 minutes. A binding solution was then made from the kit components, comprised of 80% Solution A, 20% Solution B and binding reagent at a volume of 1/600 the total binding solution. The enzymatic reaction was stopped by addition of 60 μL of the binding solution to each well of the assay plate. The plates were sealed and shaken for 10 seconds. The plates were incubated at room temperature for one hour, then the parallel and perpendicular fluorescence was measured using a Tecan Genios Pro plate reader (Tecan, Switzerland). The apparent inhibition constants for the compounds against all 11 PDE's was determined from the parallel and perpendicular fluorescent readings as described for PDE10 FP assay using the following apparent KM values for each enzyme and substrate combination: PDE1A (FAM cGMP) 70 nM, human PDE2A1 (FAM cAMP) 10,000 nM, PDE3A (FAM cAMP) 50 nM, PDE4A1A (FAM cAMP) 1500 nM, PDE5A1 (FAM cGMP) 400 nM, PDE6C (FAM cGMP) 700 nM, PDE7A (FAM cAMP) 150 nM, PDE8A1 (FAM cAMP) 50 nM, PDE9A2 (FAM cGMP) 60 nM, PDE10A2 (FAM cAMP) 150 nM, PDE11A4 (FAM cAMP) 1000 nM. The intrinsic PDE2 inhibitory activity of a compound which may be used in accordance with the present invention may be determined by these assays. […]
Take `Cc1nc(-c2cnn(C(CO)c3ccc(C(F)(F)F)cc3F)c2)cc(=O)[nH]1` (single isomer, unassigned) [Example 110, (S)- or (R)-6-(1-(1-(2-fluoro-4-(trifluoromethyl)phenyl)-2-hydroxyethyl)-1H-pyrazol-4-yl)-2-methylpyrimidin-4(3H)-one]: the Ki came to 299 nM. The same measure, in the same setting: under `CCc1ccc(C(CO)c2cnn(-c3cc(=O)[nH]c(C)n3)c2)c(Cl)c1` (single isomer, unassigned) [Example 120, (R)- or (S)-6-(4-(1-(2-chloro-4-ethylphenyl)-2-hydroxyethyl)-1H-pyrazol-1-yl)-2-methylpyrimidin-4(3H)-one] stands 321 nM; under `Cc1nc(-c2cnn(C(C)c3ccc(C(F)(F)F)cc3F)c2C)cc(=O)[nH]1` (single isomer, unassigned) [Example 72, (S)- or (R)-6-(1-(1-(2-fluoro-4-(trifluoromethyl)phenyl)ethyl)-5-methyl-1H-pyrazol-4-yl)-2-methylpyrimidin-4(3H)-one], 412 nM. Still for that read-out and setting: under `Cc1nc(-c2cnn(C(C)c3ccc(C4CC4)cc3Cl)c2)cc(=O)[nH]1` (single isomer, unassigned) [Example 107, (R)- or (S)-6-(1-(1-(2-chloro-4-cyclopropylphenyl)ethyl)-1H-pyrazol-4-yl)-2-methylpyrimidin-4(3H)-one] stands 9.4 nM; under `Cc1nc(-c2cnn(C(CO)c3ccc(C(F)(F)F)cc3Cl)c2)cc(=O)[nH]1` (single isomer, unassigned) [Example 123, (S)- or (R)-6-(1-(1-(2-chloro-4-(trifluoromethyl)phenyl)-2-hydroxyethyl)-1H-pyrazol-4-yl)-2-methylpyrimidin-4(3H)-one], 6.5 nM.

Turning to `CCc1ccc([C@](C)(O)c2cnn(-c3cc(=O)[nH]c(C)n3)c2)c(F)c1` (single isomer, unassigned) [Example 12], the Ki came out at 244 nM.

With `CCc1ccc(C(CO)n2cc(-c3cc(=O)[nH]c(C)n3)cn2)c(F)c1` (single isomer, unassigned) [Example 112, (S)- or (R)-6-(1-(1-(4-ethyl-2-fluorophenyl)-2-hydroxyethyl)-1H-pyrazol-4-yl)-2-methylpyrimidin-4(3H)-one], the Ki came out at 438 nM.

`CCc1ccc([C@@H](CO)n2cc(-c3cc(=O)[nH]c(C)n3)cn2)c(Cl)c1` (single isomer, unassigned) [Example 17]: the Ki turned out to be 683 nM. As for `Cc1nc(-c2cnn(C(CO)c3ccc(C(F)(F)F)cc3Cl)c2)cc(=O)[nH]1` (single isomer, unassigned) [Example 122, (R)- or (S)-6-(1-(1-(2-chloro-4-(trifluoromethyl)phenyl)-2-hydroxyethyl)-1H-pyrazol-4-yl)-2-methylpyrimidin-4(3H)-one], the Ki amounted to 616 nM. Same read-out and setting: in the case of `Cc1nc(-c2cnn(C(C)c3ccc(CC(F)(F)F)cc3C)c2)cc(=O)[nH]1` (single isomer, unassigned) [Example 106, (S)- or (R)-2-methyl-6-(1-(1-(2-methyl-4-(2,2,2-trifluoroethyl)phenyl)ethyl)-1H-pyrazol-4-yl)pyrimidin-4(3H)-one] it was 710 nM; in that of `Cc1nc(-c2cnn([C@H](C)c3c(F)cc(C(F)(F)F)cc3F)c2)cc(=O)[nH]1` (single isomer, unassigned) [Example 8], 107 nM; in that of `CCc1ccc(C(CO)n2cc(-c3cc(=O)[nH]c(C)n3)cn2)c(F)c1` (single isomer, unassigned) [Example 111, (R)- or (S)-6-(1-(1-(4-ethyl-2-fluorophenyl)-2-hydroxyethyl)-1H-pyrazol-4-yl)-2-methylpyrimidin-4(3H)-one], 42.5 nM. The same measure, in the same setting: under `CCCc1ccc([C@](C)(O)c2cnn(-c3cc(=O)[nH]c(C)n3)c2)c(F)c1` (single isomer, unassigned) [Example 14] stands 1400 nM; under `Cc1nc(-c2cn(C(C)c3ccc(C(F)(F)F)cc3F)nc2C)cc(=O)[nH]1` (single isomer, unassigned) [Example 69, (R)- or (S)-(6-(1-(1-(2-fluoro-4-(trifluoromethyl)phenyl)ethyl)-3-methyl-1H-pyrazol-4-yl)-2-methylpyrimidin-4(3H)-one], 32.6 nM. The same measure, in the same setting: in the case of `Cc1nc(-n2cc(C(C)(O)c3ccc(C(F)(F)F)cc3Cl)cn2)cc(=O)[nH]1` (single isomer, unassigned) [Example 118, (S)- or (R)-6-(4-(1-(2-chloro-4-(trifluoromethyl)phenyl)-1-hydroxyethyl)-1H-pyrazol-1-yl)-2-methylpyrimidin-4(3H)-one] it was 47.8 nM.

The next data set concerns other PDE isoforms.
Assay: not given
The note with it: reported in Brandon et al. 2007; cited from earlier work.
Take `COc1ccc(Cc2nn3c([C@@H](CCCc4ccccc4)[C@@H](C)O)nc(C)c3c(=O)[nH]2)cc1OC` [Bay 60-7550]: the “potency at other PDE isoforms” value is “significant potency”.

Tested on in the next data set: not given
Assay: not given
The note with it: reported in Brandon et al. 2007; cited from earlier work.
Regarding `COc1ccc(Cc2nn3c([C@@H](CCCc4ccccc4)[C@@H](C)O)nc(C)c3c(=O)[nH]2)cc1OC` [Bay 60-7550], the brain penetration entry is recorded as “limited brain penetration”.
